{
  "source": "paper PMC8622278",
  "about": "“The Effects of Structural Alterations in the Polyamine and Amino Acid Moieties of Philanthotoxins on Nicotinic Acetylcholine Receptor Inhibition in the Locust, Schistocerca gregaria” (Molecules, 2021)",
  "key": {"locust neuron nAChR": {"tested_on": "locust neuron nAChR", "experiment": "Whole-cell patch-clamp of locust mushroom body neurons, ACh-evoked currents", "assay_type": "cell-based, Schistocerca gregaria", "details": "for Fold increase in potency vs PhTX-343, 1 s current / Fold increase in potency vs PhTX-343, peak current: IC50 PhTX-343 / IC50 analogue; for Cells in which potentiation of the ACh response was observed: co-application of 0.01 and 0.1 μM", "description": "Neuronal cells were harvested through dissection of adult desert locusts (Shistocerca gregaria) purchased from livefoods.com. Following 10 min of cold anaesthesia at 4 °C, the locusts were submerged in 70% ethanol and their heads removed by decapitation with dissection scissors. The front of the head capsule was removed to expose the mushroom body of the brain, which was extracted, cut into small pieces, and placed into a 1 mL Eppendorf tube with 200 μL of Rinaldi’s saline (135 mM NaCl, 25 mM KCl, 0.4 mM NaHCO3, 0.5 mM glucose, and 5 mM HEPES adjusted to pH 7.2 with NaOH) containing 0.5 mg/mL dispase and 2 mg/mL collagenase. After 15 min incubation at 36.5 °C, neurons were centrifuged at 800× g for 1 min at room temperature to form a pellet. The supernatant was removed and replaced with 200 μL locust culture medium (5:4 − DMEM + 10% FCS + 2 mM Gln: Schneider’s insect medium + 10 IU/mL penicillin + 20 μg/mL streptomycin). A total of 200 μL of culture medium was gently pipette-mixed with the pellet to create a suspension of cells, which were spread over poly-L-lysine-coated glass coverslips (5 × 20 mm) in 35 mm Petri dishes containing 2 mL locust culture medium. Petri dishes were incubated overnight at 36.5 °C in a 5% CO2 atmosphere.\nExperiments were conducted 16–24 h after neuron dissociation. Coverslips covered in locust neurons were placed into a patch-clamp perfusion chamber, and were then constantly perfused with locust saline solution (180 mM NaCl, 10 mM KCl, 2 mM CaCl2, 10 mM HEPES, and pH 7.2 with NaOH). Borosilicate glass patch pipettes (1B150F-4, World Precision Instruments, Hertfordshire, UK), pulled to ~5–10 MΩ with a P-97 Flaming/Brown micropipette puller (Sutter Instrument Co., Novato, CA, USA), were filled with caesium pipette solution (140 mM CsCl, 1 mM CaCl2, 1 mM MgCl2, 11 mM EGTA, and 5 mM HEPES, pH 7.2) and placed in a patch pipette holder mounted on the patch-clamp amplifier head stage. Patch-clamped cells were clamped at a holding potential (VH) of −75 mV. Whole-cell currents were monitored by using an Axopatch 200A patch-clamp amplifier (Molecular Devices, San Jose, CA, USA) and recorded with WinWCP V4.5.7 software (Dr John Dempster, Institute of Pharmacy & Biomedical Sciences, University of Strathclyde, Glasgow, UK). Test compounds were focally applied to cells as 1 s pulses using a DAD-12 superfusion system (ALA Scientific Instruments, Farmingdale, NY, USA). Between each application of test compounds, clamped cells were washed for 1 min with locust saline. […]\nA total of 100 μM acetylcholine (ACh) was applied to cells twice prior to (control) and once after the co-application of 100 μM ACh and PhTX analogue. Peak current and current after 1 s of application were measured using WinWCP, and then the percentage of control response values were generated by normalising responses to ACh + PhTX co-application to the ACh-only control response. GraphPad Prism 9 (GraphPad Software, San Diego, CA, USA) was used for data analysis, graph plotting, curve fitting, and statistical analysis. To estimate the ACh EC50, concentration–response data were fit by the Hill equation:(1) % maximum response=100/(1+10^(LogEC50−X)S) where X is the log of the ACh concentration and S is the Hill slope. Concentration–inhibition curves were generated by plotting the mean and standard error of the normalised current measurements against log antagonist concentration, and then IC50 values were estimated by fitting a non-linear regression curve by using the equation:(2) % control response=100/(1+10^(X−LogIC50)S) where X is the log of the concentration of the PhTX analogue and S is the Hill slope."}, "human muscle-type nAChRs": {"tested_on": "human muscle-type nAChRs", "set-up": "method as in PMID 16892364", "details": "cited from earlier work"}, "rat α3β4 nAChRs": {"tested_on": "rat α3β4 nAChRs", "details": "rat subtype α3β4; cited from earlier work"}, "rat α4β2 nAChRs": {"tested_on": "rat α4β2 nAChRs", "details": "rat subtype α4β2; cited from earlier work"}, "[1]": {"details": "inhibition of 100 μM ACh-evoked current after 1 s of activation, VH −75 mV, read-out: IC50 (95% CI), 1 s Current"}, "[2]": {"details": "inhibition of 100 μM ACh-evoked peak current, VH −75 mV, read-out: IC50 (95% CI), Peak Current"}, "[3]": {"details": "at both 0.01 and 0.1 μM, cells showing potentiation, 100 μM ACh"}},
  "note": "Several values for one entry are separate records, joined by “and”; a condition that tells them apart may be missing. Equal entries are not always repeated. Where two headings read alike, the source gives them in different places.",
  "data": [
    {"smiles": "CC(=O)OCC[N+](C)(C)C", "note": "[ACh, acetylcholine]", "values": [
      {"measurement": "EC50", "setting": "locust neuron nAChR; peak response, n = 11, read-out: EC50 of ACh-evoked whole-cell current", "result": 20300, "unit": "nM"}
    ]},
    {"smiles": "CCCC(=O)N[C@@H](CC1CCCCC1)C(=O)NCCCCCCCCCCCCN", "note": "[Cha-PhTX-12]", "values": [
      {"measurement": "Fold increase in potency vs PhTX-343, 1 s current", "setting": "locust neuron nAChR", "result": 471, "unit": "fold"},
      {"measurement": "Fold increase in potency vs PhTX-343, peak current", "setting": "locust neuron nAChR", "result": "> 5000", "unit": "fold"},
      {"measurement": "IC50", "setting": "locust neuron nAChR; at −75 mV (abstract; 1 s current), read-out: IC50", "result": 1.71, "unit": "nM"},
      {"measurement": "IC50", "setting": "locust neuron nAChR; [1]", "result": 1.7, "unit": "nM"},
      {"measurement": "IC50", "setting": "locust neuron nAChR; [2]", "result": 7.5, "unit": "nM"}
    ]},
    {"smiles": "CCCC(=O)N[C@@H](CC1CCCCC1)C(=O)NCCCNCCCCNCCCN", "note": "[Cha-PhTX-343]", "values": [
      {"measurement": "Potentiation, % of the ACh control response, peak and 1 s current similar", "setting": "locust neuron nAChR; 0.01 μM, cells showing potentiation, 100 μM ACh", "result": "about 145%"},
      {"measurement": "Potentiation, % of the ACh control response, peak and 1 s current similar", "setting": "locust neuron nAChR; 0.1 μM, cells showing potentiation, 100 μM ACh", "result": "~125", "unit": "%"},
      {"measurement": "Fold increase in potency vs PhTX-343, 1 s current", "setting": "locust neuron nAChR", "result": 1.8, "unit": "fold"},
      {"measurement": "Fold increase in potency vs PhTX-343, peak current", "setting": "locust neuron nAChR", "result": 23, "unit": "fold"},
      {"measurement": "Cells in which potentiation of the ACh response was observed", "setting": "locust neuron nAChR", "result": "12 out of 22"},
      {"measurement": "IC50", "setting": "locust neuron nAChR; [1]", "result": 440, "unit": "nM"},
      {"measurement": "IC50", "setting": "locust neuron nAChR; [2]", "result": 1750, "unit": "nM"},
      {"measurement": "Times more potent than PhTX-12", "setting": "human muscle-type nAChRs", "result": "> 10", "unit": "times"},
      {"measurement": "Times more potent than PhTX-343", "setting": "human muscle-type nAChRs", "result": "> 100", "unit": "times"},
      {"measurement": "IC50", "setting": "rat α3β4 nAChRs", "result": "low nanomolar range"},
      {"measurement": "IC50", "setting": "rat α4β2 nAChRs", "result": "low nanomolar range"}
    ]},
    {"smiles": "CCCC(=O)N[C@@H](Cc1ccc(O)cc1)C(=O)NCCCCCCCCCCCCN", "note": "[PhTX-12]", "values": [
      {"measurement": "Fold increase in potency vs PhTX-343, 1 s current", "setting": "locust neuron nAChR", "result": "6.2 fold and ~ 6 fold"},
      {"measurement": "Fold increase in potency vs PhTX-343, peak current", "setting": "locust neuron nAChR", "result": 34, "unit": "fold"},
      {"measurement": "IC50", "setting": "locust neuron nAChR; [1]", "result": 130, "unit": "nM"},
      {"measurement": "IC50", "setting": "locust neuron nAChR; [2]", "result": 1170, "unit": "nM"}
    ]},
    {"smiles": "CCCC(=O)N[C@@H](Cc1ccc(O)cc1)C(=O)NCCCNCCCCNCCCN", "note": "[PhTX-343, philanthotoxin-343, reference compound]", "values": [
      {"measurement": "Mean potentiation, % of the ACh control response, 1 s current", "setting": "locust neuron nAChR; [3]", "result": "~300", "unit": "%"},
      {"measurement": "Mean potentiation, % of the ACh control response, peak current", "setting": "locust neuron nAChR; [3]", "result": "around 200%"},
      {"measurement": "Cells in which potentiation of the ACh response was observed", "setting": "locust neuron nAChR", "result": "8 out of 23"},
      {"measurement": "IC50", "setting": "locust neuron nAChR; [1]", "result": 800, "unit": "nM"},
      {"measurement": "IC50", "setting": "locust neuron nAChR; [2]", "result": 39800, "unit": "nM"}
    ]},
    {"smiles": "COc1cc2c3cc1Oc1cc(ccc1O)C[C@@H]1c4c(cc(OC)c(O)c4Oc4ccc(cc4)C[C@@H]3N(C)CC2)CC[N+]1(C)C", "note": "[d-tubocurarine, reference compound]", "values": [
      {"measurement": "IC50", "setting": "locust neuron nAChR; co-applied 0.1 to 100 μM with 100 μM ACh, n = 11, read-out: IC50 for inhibition of 100 μM ACh current", "result": 2730, "unit": "nM"},
      {"measurement": "Inhibition at the highest concentration", "setting": "locust neuron nAChR; highest concentration (100 μM) co-applied with 100 μM ACh", "result": "complete inhibition"}
    ]},
    {"smiles": "CN1CCC[C@H]1c1cccnc1", "note": "[nicotine, reference compound]", "values": [
      {"measurement": "Whole-cell current response compared with 100 μM ACh", "setting": "locust neuron nAChR; 100 μM, same neuron", "result": "smaller than that seen for ACh"}
    ]}
  ]
}
